Experimental data reported in ChEMBL document CHEMBL4507317, “Data for DCP probe BAY-899” (2021).

Tests used:
[1] = target: Serine/threonine-protein kinase B-raf (Homo sapiens) (UniProt P15056); settings: Compound concentration 1000.0 nM
[2] = target: Mitogen-activated protein kinase kinase kinase 2 (Homo sapiens) (UniProt Q9Y2U5); settings: Compound concentration 1000.0 nM
[3] = target: Receptor-interacting serine/threonine-protein kinase 2 (Homo sapiens) (UniProt O43353); settings: Compound concentration 1000.0 nM
[4] = target: Cyclin-dependent kinase 8 (Homo sapiens) (UniProt P49336); settings: Compound concentration 1000.0 nM
[5] = target: Serine/threonine-protein kinase NIM1 (Homo sapiens) (UniProt Q8IY84); settings: Compound concentration 1000.0 nM
[6] = target: Mitogen-activated protein kinase kinase kinase 15 (Homo sapiens) (UniProt Q6ZN16); settings: Compound concentration 1000.0 nM
[7] = target: Myosin light chain kinase, smooth muscle (Homo sapiens) (UniProt Q15746); settings: Compound concentration 1000.0 nM
[8] = target: Cyclin-dependent kinase 3 (Homo sapiens) (UniProt Q00526); settings: Compound concentration 1000.0 nM
[9] = target: Serine/threonine-protein kinase PAK 2 (Homo sapiens) (UniProt Q13177); settings: Compound concentration 1000.0 nM
[10] = target: Cyclin-G-associated kinase (Homo sapiens) (UniProt O14976); settings: Compound concentration 1000.0 nM
[11] = target: RAF proto-oncogene serine/threonine-protein kinase (Homo sapiens) (UniProt P04049); settings: Compound concentration 1000.0 nM
[12] = target: Calcium/calmodulin-dependent protein kinase kinase 2 (Homo sapiens) (UniProt Q96RR4); settings: Compound concentration 1000.0 nM
[13] = target: Wee1-like protein kinase (Homo sapiens) (UniProt P30291); settings: Compound concentration 1000.0 nM
[14] = target: Casein kinase II subunit alpha' (Homo sapiens) (UniProt P19784); settings: Compound concentration 1000.0 nM
[15] = target: Tyrosine-protein kinase Lyn (Homo sapiens) (UniProt P07948); settings: Compound concentration 1000.0 nM
[16] = test system: Receptor-type tyrosine-protein kinase FLT3 (Homo sapiens), P36888 [N841I]; settings: Compound concentration 1000.0 nM
[17] = target: Kappa-type opioid receptor (Homo sapiens, UniProt P41145); test: GPCRScan assay: inhibition of KOR; parameters: radioligand conc. used [nm] 0.6 – 1.2, parental cells stable HEK
[18] = target: Tyrosine-protein kinase JAK2 (Homo sapiens) (UniProt O60674); settings: Compound concentration 1000.0 nM
[19] = target: Sigma non-opioid intracellular receptor 1 (Homo sapiens, UniProt Q99720); test: GPCRScan assay: inhibition of Sigma 1; parameters: radioligand conc. used [nm] 4.0 – 5.0, parental cells HEKT
[20] = target: Death-associated protein kinase 1 (Homo sapiens) (UniProt P53355); settings: Compound concentration 1000.0 nM
[21] = target: RAC-gamma serine/threonine-protein kinase (Homo sapiens) (UniProt Q9Y243); settings: Compound concentration 1000.0 nM
[22] = target: Mitogen-activated protein kinase 11 (Homo sapiens) (UniProt Q15759); settings: Compound concentration 1000.0 nM
[23] = target: Mitogen-activated protein kinase kinase kinase kinase 1 (Homo sapiens) (UniProt Q92918); settings: Compound concentration 1000.0 nM
[24] = target: Protein kinase C iota type (Homo sapiens) (UniProt P41743); settings: Compound concentration 1000.0 nM
[25] = target: TRAF2 and NCK-interacting protein kinase (Homo sapiens) (UniProt Q9UKE5); settings: Compound concentration 1000.0 nM
[26] = target: Serine/threonine-protein kinase PRP4 homolog (Homo sapiens) (UniProt Q13523); settings: Compound concentration 1000.0 nM
[27] = target: TGF-beta receptor type-1 (Homo sapiens) (UniProt P36897); settings: Compound concentration 1000.0 nM
[28] = target: Cyclin-dependent kinase-like 5 (Homo sapiens) (UniProt O76039); settings: Compound concentration 1000.0 nM
[29] = target: Serine/threonine-protein kinase N1 (Homo sapiens) (UniProt Q16512); settings: Compound concentration 1000.0 nM
[30] = target: Mitogen-activated protein kinase 10 (Homo sapiens) (UniProt P53779); settings: Compound concentration 1000.0 nM
[31] = target: Phosphatidylinositol 3-kinase C2 domain-containing subunit gamma (Homo sapiens) (UniProt O75747); settings: Compound concentration 1000.0 nM
[32] = target: Tyrosine-protein kinase Fgr (Homo sapiens) (UniProt P09769); settings: Compound concentration 1000.0 nM
[33] = test system: Mast/stem cell growth factor receptor Kit (Homo sapiens), P10721 [D816V]; settings: Compound concentration 1000.0 nM
[34] = target: Phosphatidylinositol 3-kinase catalytic subunit type 3 (Homo sapiens) (UniProt Q8NEB9); settings: Compound concentration 1000.0 nM
[35] = test system: Epidermal growth factor receptor (Homo sapiens), P00533 [G719S]; settings: Compound concentration 1000.0 nM
[36] = target: Alpha-1B adrenergic receptor (Homo sapiens) (UniProt P35368); settings: Compound concentration 10.0 uM
[37] = target: Hepatocyte growth factor receptor (Homo sapiens) (UniProt P08581); settings: Compound concentration 1000.0 nM
[38] = target: Ephrin type-B receptor 6 (Homo sapiens) (UniProt O15197); settings: Compound concentration 1000.0 nM
[39] = target: Inhibitor of nuclear factor kappa-B kinase subunit epsilon (Homo sapiens) (UniProt Q14164); settings: Compound concentration 1000.0 nM
[40] = target: Alpha-1D adrenergic receptor (Homo sapiens) (UniProt P25100); settings: Compound concentration 10.0 uM
[41] = test system: Epidermal growth factor receptor (Homo sapiens), P00533 [L861Q]; settings: Compound concentration 1000.0 nM
[42] = target: Bone morphogenetic protein receptor type-1A (Homo sapiens) (UniProt P36894); settings: Compound concentration 1000.0 nM
[43] = target: Myosin-IIIa (Homo sapiens) (UniProt Q8NEV4); settings: Compound concentration 1000.0 nM
[44] = target: Ribosomal protein S6 kinase alpha-3 (Homo sapiens) (UniProt P51812); settings: Compound concentration 1000.0 nM
[45] = test system: Phosphatidylinositol 4,5-bisphosphate 3-kinase catalytic subunit alpha isoform (Homo sapiens), P42336 [E545A]; settings: Compound concentration 1000.0 nM
[46] = target: Receptor-type tyrosine-protein kinase FLT3 (Homo sapiens) (UniProt P36888); settings: Compound concentration 1000.0 nM

Ephrin type-B receptor 6 (Homo sapiens), sequence (O15197 whole entry): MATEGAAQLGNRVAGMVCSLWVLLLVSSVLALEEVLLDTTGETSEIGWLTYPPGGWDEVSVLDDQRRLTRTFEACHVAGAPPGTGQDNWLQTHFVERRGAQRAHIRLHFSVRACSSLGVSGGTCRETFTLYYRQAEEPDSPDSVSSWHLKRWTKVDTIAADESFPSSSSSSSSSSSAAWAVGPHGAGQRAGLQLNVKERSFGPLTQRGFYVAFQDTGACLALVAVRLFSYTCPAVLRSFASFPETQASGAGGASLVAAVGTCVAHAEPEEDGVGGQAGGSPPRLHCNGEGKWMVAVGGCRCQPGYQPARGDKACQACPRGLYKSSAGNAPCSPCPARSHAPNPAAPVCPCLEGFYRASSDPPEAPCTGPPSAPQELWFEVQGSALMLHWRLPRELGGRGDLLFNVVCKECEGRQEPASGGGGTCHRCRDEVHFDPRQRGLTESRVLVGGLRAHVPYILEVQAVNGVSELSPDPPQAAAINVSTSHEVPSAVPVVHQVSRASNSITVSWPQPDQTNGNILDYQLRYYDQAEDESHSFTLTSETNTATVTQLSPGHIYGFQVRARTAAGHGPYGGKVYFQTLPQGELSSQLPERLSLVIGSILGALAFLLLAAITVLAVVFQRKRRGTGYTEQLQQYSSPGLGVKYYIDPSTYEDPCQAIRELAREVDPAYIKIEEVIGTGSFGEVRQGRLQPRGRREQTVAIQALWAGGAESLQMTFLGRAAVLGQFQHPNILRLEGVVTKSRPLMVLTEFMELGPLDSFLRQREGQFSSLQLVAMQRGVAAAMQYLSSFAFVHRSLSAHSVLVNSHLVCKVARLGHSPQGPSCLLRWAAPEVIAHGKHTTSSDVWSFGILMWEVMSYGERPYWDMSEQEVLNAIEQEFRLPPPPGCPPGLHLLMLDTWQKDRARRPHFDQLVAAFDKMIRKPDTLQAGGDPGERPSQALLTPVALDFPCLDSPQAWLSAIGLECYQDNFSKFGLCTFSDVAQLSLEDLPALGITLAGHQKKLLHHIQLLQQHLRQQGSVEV
Mast/stem cell growth factor receptor Kit (Homo sapiens), P10721 [D816V], sequence (P10721 whole entry D816V): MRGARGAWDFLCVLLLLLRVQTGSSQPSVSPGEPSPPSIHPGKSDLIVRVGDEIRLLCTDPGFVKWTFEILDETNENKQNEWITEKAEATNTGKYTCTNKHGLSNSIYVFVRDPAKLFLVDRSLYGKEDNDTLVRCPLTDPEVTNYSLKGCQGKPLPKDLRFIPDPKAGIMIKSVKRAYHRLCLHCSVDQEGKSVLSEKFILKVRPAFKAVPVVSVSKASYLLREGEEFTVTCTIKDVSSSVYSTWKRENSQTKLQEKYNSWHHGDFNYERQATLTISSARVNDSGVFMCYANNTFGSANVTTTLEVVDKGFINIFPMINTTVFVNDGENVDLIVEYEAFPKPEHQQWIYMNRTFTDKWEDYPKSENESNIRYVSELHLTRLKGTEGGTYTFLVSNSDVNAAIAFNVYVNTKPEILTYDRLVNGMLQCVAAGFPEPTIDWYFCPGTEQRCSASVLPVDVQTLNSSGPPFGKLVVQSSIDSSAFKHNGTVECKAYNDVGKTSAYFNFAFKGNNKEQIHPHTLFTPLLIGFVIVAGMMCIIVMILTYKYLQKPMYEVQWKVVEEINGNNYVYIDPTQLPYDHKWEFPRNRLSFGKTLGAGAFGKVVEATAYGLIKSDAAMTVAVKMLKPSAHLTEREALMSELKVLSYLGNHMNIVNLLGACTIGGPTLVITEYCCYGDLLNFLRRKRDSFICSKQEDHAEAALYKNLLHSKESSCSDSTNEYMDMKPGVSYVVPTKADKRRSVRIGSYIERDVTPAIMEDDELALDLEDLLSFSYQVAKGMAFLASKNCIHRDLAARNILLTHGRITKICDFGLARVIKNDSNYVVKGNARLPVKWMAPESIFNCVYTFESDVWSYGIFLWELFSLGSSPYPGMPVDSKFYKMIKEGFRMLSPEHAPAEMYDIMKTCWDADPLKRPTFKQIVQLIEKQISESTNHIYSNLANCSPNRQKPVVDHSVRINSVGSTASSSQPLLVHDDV
RAC-gamma serine/threonine-protein kinase (Homo sapiens), sequence (Q9Y243 whole entry): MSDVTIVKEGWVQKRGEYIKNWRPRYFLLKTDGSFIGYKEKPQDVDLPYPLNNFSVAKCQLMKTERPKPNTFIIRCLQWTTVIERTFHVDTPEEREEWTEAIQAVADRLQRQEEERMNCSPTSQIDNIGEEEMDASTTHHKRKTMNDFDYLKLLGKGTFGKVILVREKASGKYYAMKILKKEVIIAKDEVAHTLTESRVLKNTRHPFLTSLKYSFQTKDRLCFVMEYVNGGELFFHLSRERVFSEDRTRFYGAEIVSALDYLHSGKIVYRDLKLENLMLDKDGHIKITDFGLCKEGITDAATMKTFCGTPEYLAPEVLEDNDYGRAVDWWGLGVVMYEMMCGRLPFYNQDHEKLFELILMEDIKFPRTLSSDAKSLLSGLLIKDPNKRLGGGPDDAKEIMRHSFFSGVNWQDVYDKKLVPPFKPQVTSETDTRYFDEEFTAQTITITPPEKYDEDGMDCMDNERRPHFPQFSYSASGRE
Receptor-interacting serine/threonine-protein kinase 2 (Homo sapiens), sequence (O43353 whole entry): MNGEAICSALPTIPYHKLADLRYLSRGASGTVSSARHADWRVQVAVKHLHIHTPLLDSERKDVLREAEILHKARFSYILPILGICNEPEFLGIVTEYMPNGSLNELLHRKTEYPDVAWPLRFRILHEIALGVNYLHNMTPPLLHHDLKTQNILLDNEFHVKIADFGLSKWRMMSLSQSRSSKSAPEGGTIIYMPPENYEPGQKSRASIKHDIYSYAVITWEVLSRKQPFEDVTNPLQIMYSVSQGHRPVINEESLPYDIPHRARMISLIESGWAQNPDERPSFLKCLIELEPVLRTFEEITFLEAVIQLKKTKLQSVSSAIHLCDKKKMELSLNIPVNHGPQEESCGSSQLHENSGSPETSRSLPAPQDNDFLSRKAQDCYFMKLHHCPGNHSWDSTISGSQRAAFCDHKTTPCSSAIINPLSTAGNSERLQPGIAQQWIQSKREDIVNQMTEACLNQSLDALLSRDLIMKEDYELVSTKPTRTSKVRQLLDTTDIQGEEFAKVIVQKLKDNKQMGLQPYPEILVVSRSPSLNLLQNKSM
Sigma non-opioid intracellular receptor 1, sequence (Q99720 whole entry): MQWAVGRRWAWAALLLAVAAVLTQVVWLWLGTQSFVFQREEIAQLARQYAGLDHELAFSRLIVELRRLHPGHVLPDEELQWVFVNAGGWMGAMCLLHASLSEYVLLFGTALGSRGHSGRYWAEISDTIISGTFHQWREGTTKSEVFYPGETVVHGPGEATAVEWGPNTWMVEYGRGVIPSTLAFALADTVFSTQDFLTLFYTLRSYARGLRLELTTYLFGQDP
Bone morphogenetic protein receptor type-1A (Homo sapiens), sequence (P36894 whole entry): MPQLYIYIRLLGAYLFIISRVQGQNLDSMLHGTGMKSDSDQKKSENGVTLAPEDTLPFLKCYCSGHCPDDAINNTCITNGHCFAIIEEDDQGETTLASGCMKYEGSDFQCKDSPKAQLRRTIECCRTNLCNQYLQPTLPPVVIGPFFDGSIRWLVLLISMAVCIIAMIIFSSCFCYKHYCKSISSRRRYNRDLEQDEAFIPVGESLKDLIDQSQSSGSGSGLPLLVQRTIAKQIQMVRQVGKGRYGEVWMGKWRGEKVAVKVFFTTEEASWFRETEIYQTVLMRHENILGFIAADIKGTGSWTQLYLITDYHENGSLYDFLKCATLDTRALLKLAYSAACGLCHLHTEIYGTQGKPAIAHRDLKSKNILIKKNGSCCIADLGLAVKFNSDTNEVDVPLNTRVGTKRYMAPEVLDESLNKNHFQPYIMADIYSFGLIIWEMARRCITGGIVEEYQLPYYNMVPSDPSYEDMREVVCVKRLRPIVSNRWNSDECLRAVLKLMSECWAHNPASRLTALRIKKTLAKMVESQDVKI
Casein kinase II subunit alpha' (Homo sapiens), sequence (P19784 whole entry, looked up): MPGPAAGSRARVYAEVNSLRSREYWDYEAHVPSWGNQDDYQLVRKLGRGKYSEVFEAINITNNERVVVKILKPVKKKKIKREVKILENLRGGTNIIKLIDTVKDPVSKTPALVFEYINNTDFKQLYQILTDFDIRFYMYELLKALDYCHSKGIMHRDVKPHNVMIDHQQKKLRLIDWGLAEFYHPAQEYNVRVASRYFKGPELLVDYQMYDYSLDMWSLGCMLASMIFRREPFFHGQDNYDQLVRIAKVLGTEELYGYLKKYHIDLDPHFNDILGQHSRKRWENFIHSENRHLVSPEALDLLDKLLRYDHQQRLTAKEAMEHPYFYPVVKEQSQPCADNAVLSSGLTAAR
Mitogen-activated protein kinase kinase kinase 2 (Homo sapiens), sequence (Q9Y2U5 whole entry): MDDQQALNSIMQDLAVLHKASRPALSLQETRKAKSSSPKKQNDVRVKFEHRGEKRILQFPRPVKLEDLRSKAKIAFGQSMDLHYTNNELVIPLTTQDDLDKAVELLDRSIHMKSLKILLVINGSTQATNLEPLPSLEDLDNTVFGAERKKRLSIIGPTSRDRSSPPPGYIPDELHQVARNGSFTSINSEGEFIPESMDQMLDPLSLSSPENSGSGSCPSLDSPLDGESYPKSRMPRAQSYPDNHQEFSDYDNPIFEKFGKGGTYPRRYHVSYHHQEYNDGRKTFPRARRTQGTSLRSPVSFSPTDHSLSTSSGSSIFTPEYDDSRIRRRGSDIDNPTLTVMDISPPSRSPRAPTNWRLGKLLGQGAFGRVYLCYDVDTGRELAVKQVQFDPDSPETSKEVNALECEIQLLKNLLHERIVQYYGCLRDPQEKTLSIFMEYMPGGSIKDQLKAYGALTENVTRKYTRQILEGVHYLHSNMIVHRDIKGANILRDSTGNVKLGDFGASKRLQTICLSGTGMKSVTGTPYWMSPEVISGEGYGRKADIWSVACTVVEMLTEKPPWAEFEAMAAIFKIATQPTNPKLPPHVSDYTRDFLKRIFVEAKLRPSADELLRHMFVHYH

## O=C(Nc1cnc(Oc2ccc(F)cc2)nc1)N1CCc2ncccc2[C@@H]1c1ccc(F)cc1 [BAY-899]
[1]
  residual activity: 74%
[2]
  residual activity: 99%
[3]
  residual activity: 93%
[4]
  residual activity: 70%
[5]
  residual activity: 90%
[6]
  residual activity: 100%
[7]
  residual activity: 100%
[8]
  residual activity: 89%
[9]
  residual activity: 59%
[10]
  residual activity: 94%
[11]
  residual activity: 100%
[12]
  residual activity: 93%
[13]
  residual activity: 85%
[14]
  residual activity: 100%
[15]
  residual activity: 82%
[16]
  residual activity: 88%
[17]
  Ki: 7.63 µM
[18]
  residual activity: 84%
[19]
  Ki: 1.43 µM
[20]
  residual activity: 78%
[21]
  residual activity: 78%
[22]
  residual activity: 84%
[23]
  residual activity: 100%
[24]
  residual activity: 98%
[25]
  residual activity: 100%
[26]
  residual activity: 90%
[27]
  residual activity: 90%
[28]
  residual activity: 89%
[29]
  residual activity: 95%
[30]
  residual activity: 88%
[31]
  residual activity: 97%
[32]
  residual activity: 100%
[33]
  residual activity: 98%
[34]
  residual activity: 100%
[35]
  residual activity: 72%
[36]
  inhibition: -4.4%
[37]
  residual activity: 100%
[38]
  residual activity: 100%
[39]
  residual activity: 98%
[40]
  inhibition: 8.01%
[41]
  residual activity: 85%
[42]
  residual activity: 100%
[43]
  residual activity: 100%
[44]
  residual activity: 97%
[45]
  residual activity: 98%
[46]
  residual activity: 90%

## O=C(Nc1ccc(Oc2ccc(F)cc2)cc1)N1CCc2ncccc2[C@H]1c1ccc(F)cc1 [BAY-897]
[1]
  residual activity: 85%
[2]
  residual activity: 89%
[3]
  residual activity: 96%
[4]
  residual activity: 95%
[5]
  residual activity: 80%
[6]
  residual activity: 100%
[7]
  residual activity: 100%
[8]
  residual activity: 93%
[9]
  residual activity: 52%
[10]
  residual activity: 89%
[11]
  residual activity: 100%
[12]
  residual activity: 100%
[13]
  residual activity: 100%
[14]
  residual activity: 100%
[15]
  residual activity: 95%
[16]
  residual activity: 93%
[17]
  Ki: 3.13 µM
[18]
  residual activity: 100%
[19]
  Ki: 2.4 µM
[20]
  residual activity: 87%
[21]
  residual activity: 95%
[22]
  residual activity: 100%
[23]
  residual activity: 100%
[24]
  residual activity: 100%
[25]
  residual activity: 100%
[26]
  residual activity: 100%
[27]
  residual activity: 85%
[28]
  residual activity: 100%
[29]
  residual activity: 100%
[30]
  residual activity: 82%
[31]
  residual activity: 100%
[32]
  residual activity: 100%
[33]
  residual activity: 100%
[34]
  residual activity: 92%
[35]
  residual activity: 74%
[36]
  inhibition: 12.2%
[37]
  residual activity: 100%
[38]
  residual activity: 70%
[39]
  residual activity: 89%
[40]
  inhibition: 34%
[41]
  residual activity: 83%
[42]
  residual activity: 100%
[43]
  residual activity: 100%
[44]
  residual activity: 84%
[45]
  residual activity: 100%
[46]
  residual activity: 100%
